By IC50 is commonly meant the concentration at which inhibition is half-maximal.

This is an account of results in patent US11376241B2, “Aryl hydrocarbon receptor (AhR) modulator compounds” (PHENEX PHARMACEUTICALS AG, priority 2017, dated 2022).

Each structure is given as a SMILES string. Bounds are passed on as bounds.

For this assay, the target named is T1, AhR (Homo sapiens, UniProt P35869).
T1 construct: The HepG2 CYP1A1-Luc cells do express basal luciferase activity that can be increased via potent AhR agonists or decreased via potent AhR antagonists; endogenous in cells; host or cells: HepG2 (DSMZ #ACC 180) stably carrying a human CYP1A1 promoter-firefly luciferase reporter
T1 sequence (P35869 11-848): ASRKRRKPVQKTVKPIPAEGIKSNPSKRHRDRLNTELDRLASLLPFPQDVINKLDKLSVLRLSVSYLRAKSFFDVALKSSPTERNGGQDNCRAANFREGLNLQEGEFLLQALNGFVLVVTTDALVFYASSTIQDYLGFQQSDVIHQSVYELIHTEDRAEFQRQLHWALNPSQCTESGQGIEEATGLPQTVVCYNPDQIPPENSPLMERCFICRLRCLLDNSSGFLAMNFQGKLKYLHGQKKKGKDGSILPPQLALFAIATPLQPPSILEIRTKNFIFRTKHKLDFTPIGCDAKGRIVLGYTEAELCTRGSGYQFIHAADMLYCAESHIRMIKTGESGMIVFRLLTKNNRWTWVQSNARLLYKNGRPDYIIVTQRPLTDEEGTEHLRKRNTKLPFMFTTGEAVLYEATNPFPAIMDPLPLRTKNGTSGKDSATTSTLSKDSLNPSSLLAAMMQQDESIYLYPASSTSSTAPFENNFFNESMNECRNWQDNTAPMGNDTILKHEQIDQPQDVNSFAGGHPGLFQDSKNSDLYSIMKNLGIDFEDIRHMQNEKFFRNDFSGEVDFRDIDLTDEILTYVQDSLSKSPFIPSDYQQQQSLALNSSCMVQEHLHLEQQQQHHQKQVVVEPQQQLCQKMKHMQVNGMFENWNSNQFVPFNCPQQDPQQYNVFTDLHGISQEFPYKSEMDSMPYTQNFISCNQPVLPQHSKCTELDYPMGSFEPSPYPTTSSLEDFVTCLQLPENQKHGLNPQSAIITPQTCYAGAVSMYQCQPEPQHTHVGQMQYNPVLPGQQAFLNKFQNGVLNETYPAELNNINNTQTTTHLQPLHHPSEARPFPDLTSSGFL
The experiment in a line: AhR direct luciferase reporter assay in HepG2 cells (HepG2 CYP1A1-LUC). The conditions noted are these: 18 hours, luciferase activity, no exogenous AhR agonist or 10 nM VAF347, read-out: AhR potency (AhR antagonistic potency, IC50). The assay is classed as cell-based. The source says: AhR direct luciferase reporter assay in HepG2 cells.
A stable cell line (HepG2 CYP1A1-LUC) was used in which part of the promoter region of the human CYP1A1 gene is stably integrated into the genome of human HepG2 hepatocytes (DSZM #ACC 180) in front of a Photinus pyralis Firefly Luciferase gene. A 1210 bp fragment comprising part of the human CYP1A1 promoter was isolated via SacI and BglII restriction digestion from Lightswitch Clone S714555 (SwitchGearGenomics) and inserted between the SacI and BglII sites in pGL4.30 (Promega #E8481) in front of the Firefly Luciferase gene. The resulting vector was linearized with NotI, transfected into HepG2 cells (DSMZ #ACC 180) and stably transfected clones selected with 250 μg/ml Hygromycin B. After repetitive rounds of subcloning and testing for robustly regulated luciferase activity after AhR agonist stimulation, a stable clonal HepG2 CYP1A1-Luc cell line was selected.
The HepG2 CYP1A1-Luc cells do express basal luciferase activity that can be increased via potent AhR agonists or decreased via potent AhR antagonists, added to the growth medium of the cells.
In typical reporter assays performed with this cell line, cells are grown in 96-well plates and AhR modulators are titrated into the growth medium in serial dilutions in RPMI-1640 Medium (Sigma #R7509) supplemented with 8.6% fetal calf serum (Sigma #F7524) and containing either no exogenous AhR agonist or 10 nM of the potent AhR agonist VAF347 (Calbiochem #182690). Cells are further cultivated for 18 hours and luciferase activities are determined from extracts of cells in buffers containing D-Luciferine and ATP using a LUMIstar Optima microplate Luminometer from BMG Labtech.
For orientation: A reporter such as luciferase makes a cellular process visible.

For the molecule `Cn1ccnc1C(=O)Nc1cc2[nH]c(-c3ccccc3C(F)F)cc2cn1` [4/2], the IC50 was under 100 nM.
For the molecule `CCc1ccc(C(F)(F)F)c(-c2cc3cnc(NC(=O)c4ncnn4C)cc3[nH]2)c1` [Example 1/13, N-(2-(5-Ethyl-2-(trifluoromethyl)phenyl)-1H-pyrrolo[3,2-c]pyridin-6-yl)-1-methyl-1H-1,2,4-triazole-5-carboxamide], the IC50 was under 100 nM.
For `Cn1ncnc1C(=O)Nc1cc2[nH]c(-c3ccccc3C(F)F)cc2cn1` [Example 1/6, N-(2-(2-(Difluoromethyl)phenyl)-1H-pyrrolo[3,2-c]pyridin-6-yl)-1-methyl-1H-1,2,4-triazole-5-carboxamide] the value was under 100 nM; for `Cn1ncnc1C(=O)Nc1cc2[nH]c(-c3ccccc3C(F)F)c(Cl)c2cn1` [2/4], under 100 nM; for `Cn1ncnc1C(=O)Nc1cc2[nH]c(-c3ccccc3C(F)(F)F)cc2cn1` [Example 1/2, 1-Methyl-N-(2-(2-(trifluoromethyl)phenyl)-1H-pyrrolo[3,2-c]pyridin-6-yl)-1H-1,2,4-triazole-5-carboxamide], under 100 nM.
To `Cn1cnnc1C(=O)Nc1cc2[nH]c(-c3cc(F)ccc3C(F)(F)F)cc2cn1` [Example 1/7, N-(2-(5-Fluoro-2-(trifluoromethyl)phenyl)-1H-pyrrolo[3,2-c]pyridin-6-yl)-4-methyl-4H-1,2,4-triazole-3-carboxamide] belongs under 100 nM.
To `Cn1ncnc1C(=O)Nc1cc2[nH]c(-c3cc(F)ccc3C(F)(F)F)cc2cn1` [Example 1/4, N-(2-(5-Fluoro-2-(trifluoromethyl)phenyl)-1H-pyrrolo[3,2-c]pyridin-6-yl)-1-methyl-1H-1,2,4-triazole-5-carboxamide] belongs under 100 nM.
In the case of `Cn1cnnc1C(=O)Nc1cc2[nH]c(-c3ccccc3C(F)F)cc2cn1` [Example 1/5, N-(2-(2-(Difluoromethyl)phenyl)-1H-pyrrolo[3,2-c]pyridin-6-yl)-4-methyl-4H-1,2,4-triazole-3-carboxamide], the half-inhibitory concentration (IC50) is over 1000 nM.
In the case of `CC(C)c1ccccc1-c1cc2cnc(NC(=O)c3ncnn3C)cc2[nH]1` [Example 2, N-(2-(2-Isopropylphenyl)-1H-pyrrolo[3,2-c]pyridin-6-yl)-1-methyl-1H-1,2,4-triazole-5-carboxamide], the IC50 was 100 to 1000 nM.
With `Cn1cncc1C(=O)Nc1cc2[nH]c(-c3ccccc3C(F)F)cc2cn1` [4/1], the IC50 was in the range of 100 to 1000 nM.
In the case of `Cn1ncnc1C(=O)Nc1cc2[nH]c(-c3ccoc3C(F)F)cc2cn1` [Example 1/9, N-(2-(2-(Difluoromethyl)furan-3-yl)-1H-pyrrolo[3,2-c]pyridin-6-yl)-1-methyl-1H-1,2,4-triazole-5-carboxamide], the IC50 was 100 to 1000 nM.
For `Cn1ncnc1C(=O)Nc1cc2[nH]c(-c3cc(C(F)(F)F)ccc3C(F)(F)F)cc2cn1` [Example 1/10, N-(2-(2,5-Bis(trifluoromethyl)phenyl)-1H-pyrrolo[3,2-c]pyridin-6-yl)-1-methyl-1H-1,2,4-triazole-5-carboxamide], the half-maximal inhibitory concentration (IC50) was under 100 nM.
For `Cn1ncnc1C(=O)Nc1cc2[nH]c(-c3cc(F)ccc3C(F)F)cc2cn1` [Example 1/8, N-(2-(2-(Difluoromethyl)-5-fluorophenyl)-1H-pyrrolo[3,2-c]pyridin-6-yl)-1-methyl-1H-1,2,4-triazole-5-carboxamide] the value was under 100 nM.
To `Cn1ncnc1C(=O)Nc1cc2[nH]c(-c3cc(C(F)F)ccc3F)cc2cn1` [2/5] belongs 100 to 1000 nM; to `Cc1ccccc1-c1cc2cnc(NC(=O)c3ncnn3C)cc2[nH]1` [2/1], under 100 nM; to `Cn1ncnc1C(=O)Nc1cc2[nH]c(-c3cc(C#N)ccc3C(F)(F)F)cc2cn1` [2/6], under 100 nM.
Turning to `O=C(Nc1cc2[nH]c(-c3ccccc3C(F)(F)F)cc2cn1)c1ccccn1` [Example 1/3, N-(2-(2-(Trifluoromethyl)phenyl)-1H-pyrrolo[3,2-c]pyridin-6-yl) picolinamide], the half-inhibitory concentration (IC50) is under 100 nM.
To `Cn1ncnc1C(=O)Nc1cc2[nH]c(-c3cc(C4CC4)ccc3C(F)(F)F)cc2cn1` [Example 1/11, N-(2-(5-Cyclopropyl-2-(trifluoromethyl)phenyl)-1H-pyrrolo[3,2-c]pyridin-6-yl)-1-methyl-1H-1,2,4-triazole-5-carboxamide] belongs under 100 nM; to `Cn1ncnc1C(=O)Nc1cc2[nH]c(-c3cc(F)c(F)cc3C(F)F)cc2cn1` [Example 1/12, N-(2-(2-(Difluoromethyl)-4,5-difluorophenyl)-1H-pyrrolo[3,2-c]pyridin-6-yl)-1-methyl-1H-1,2,4-triazole-5-carboxamide], 100 to 1000 nM.
Regarding `Cc1scnc1C(=O)Nc1cc2[nH]c(-c3ccccc3C(F)F)cc2cn1` [Example 4, N-(2-(2-(Difluoromethyl)phenyl)-1H-pyrrolo[3,2-c]pyridin-6-yl)-5-methylthiazole-4-carboxamide], the IC50 is under 100 nM.
To `Cc1ocnc1C(=O)Nc1cc2[nH]c(-c3ccccc3C(F)F)cc2cn1` [4/3] belongs under 100 nM; to `CN(C(=O)c1ncnn1C)c1cc2[nH]c(-c3cc(F)ccc3C(F)F)cc2cn1` [Example 3, N-(2-(2-(Difluoromethyl)-5-fluorophenyl)-1H-pyrrolo[3,2-c]pyridin-6-yl)-N,1-dimethyl-1H-1,2,4-triazole-5-carboxamide], 100 to 1000 nM.
For `Cn1ncnc1C(=O)Nc1cc2[nH]c(-c3ccccc3C(F)F)c(C#N)c2cn1` [Example 5, N-(3-Cyano-2-(2-(difluoromethyl)phenyl)-1H-pyrrolo[3,2-c]pyridin-6-yl)-1-methyl-1H-1,2,4-triazole-5-carboxamide] the value was 100 to 1000 nM; for `Cn1nccc1C(=O)Nc1cc2[nH]c(-c3ccccc3C(F)(F)F)cc2cn1` [Example 1/1, 1-Methyl-N-(2-(2-(trifluoromethyl)phenyl)-1H-pyrrolo[3,2-c]pyridin-6-yl)-1H-pyrazole-5-carboxamide], under 100 nM; for `Cn1ncnc1C(=O)Nc1cc2[nH]c(-c3ccccc3C(C)(C)O)cc2cn1` [2/7], over 1000 nM.
To `Cc1ccccc1-c1cc2cnc(NC(=O)c3ccnn3C)cc2[nH]1` [Example 1, 1-Methyl-N-(2-(o-tolyl)-1H-pyrrolo[3,2-c]pyridin-6-yl)-1H-pyrazole-5-carboxamide] belongs 100 to 1000 nM; to `Cn1ncnc1C(=O)Nc1cc2[nH]c(-c3ccccc3C(F)F)c(F)c2cn1` [2/3], under 100 nM.
Take `Cn1ncnc1C(=O)Nc1cc2[nH]c(-c3c(Cl)cccc3Cl)cc2cn1` [2/2]: the IC50 was 100 to 1000 nM.
